# Measured values as given in paper PMC9403976, “Elucidating the path to Plasmodium prolyl-tRNA synthetase inhibitors that overcome halofuginone resistance” (Nature Communications, 2022).
# Values joined by “and” are separate entries in the source; they are usually repeats but may differ in a detail not shown here. Equal values may be shown once. Read-outs that look alike come from different tables or passages of the source.
# Assays:
# PfcProRS = molecular target: T1, PfcProRS (Plasmodium falciparum, UniProt Q8I5R7); assay type: binding; settings: for dose-response signal (normalized), SI Fig 8: single replicates
# T1 construct: made in house; host or cells: E. coli SoluBL-21
# HsProRS = HsProRS (Homo sapiens, UniProt P07814); assay: TR-FRET ligand displacement assay with tracer MAT379 (CoraFluor-1-Halo and anti-His6 antibody formats); assay type: binding; design: made in house; host or cells: E. coli SoluBL-21; settings: for TR-FRET dose-response, normalized signal (SI Fig 11): individual replicates
# P. falciparum Dd2-2D4 = assay: P. falciparum asexual blood stage (ABS) growth assay, SYBR Green, 72 h, wild-type parasites; assay type: cell-based, Plasmodium falciparum; settings: wildtype (Dd2-2D4); 10 μM
# T1 sequence (Q8I5R7 249-746): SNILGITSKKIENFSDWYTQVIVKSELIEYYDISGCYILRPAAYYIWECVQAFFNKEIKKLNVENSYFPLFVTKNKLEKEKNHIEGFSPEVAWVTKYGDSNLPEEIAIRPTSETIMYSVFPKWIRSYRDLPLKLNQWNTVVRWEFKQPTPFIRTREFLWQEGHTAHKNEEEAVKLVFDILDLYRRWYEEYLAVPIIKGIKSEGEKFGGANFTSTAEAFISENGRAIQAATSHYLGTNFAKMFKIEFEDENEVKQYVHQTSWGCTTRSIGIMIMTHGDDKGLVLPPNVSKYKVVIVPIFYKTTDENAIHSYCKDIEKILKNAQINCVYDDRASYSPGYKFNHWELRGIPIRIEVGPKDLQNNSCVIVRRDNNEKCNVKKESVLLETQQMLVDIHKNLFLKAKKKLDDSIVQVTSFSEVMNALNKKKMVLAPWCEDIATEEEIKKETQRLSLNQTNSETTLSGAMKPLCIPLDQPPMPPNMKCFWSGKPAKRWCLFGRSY
# HsProRS, sequence (P07814 996-1512): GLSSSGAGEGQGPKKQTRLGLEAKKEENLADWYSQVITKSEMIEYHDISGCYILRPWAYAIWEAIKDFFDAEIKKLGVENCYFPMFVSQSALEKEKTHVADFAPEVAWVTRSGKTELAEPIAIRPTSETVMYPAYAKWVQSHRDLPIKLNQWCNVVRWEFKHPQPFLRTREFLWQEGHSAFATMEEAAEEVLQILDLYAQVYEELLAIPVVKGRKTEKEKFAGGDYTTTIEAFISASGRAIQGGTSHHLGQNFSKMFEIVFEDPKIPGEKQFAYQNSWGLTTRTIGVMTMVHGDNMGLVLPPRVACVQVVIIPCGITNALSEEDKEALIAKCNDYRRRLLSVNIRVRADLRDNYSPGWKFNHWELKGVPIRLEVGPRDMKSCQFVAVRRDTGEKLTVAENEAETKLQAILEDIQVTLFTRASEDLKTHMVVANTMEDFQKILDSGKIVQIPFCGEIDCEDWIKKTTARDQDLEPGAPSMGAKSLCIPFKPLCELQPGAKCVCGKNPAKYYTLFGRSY
compound,measurement,setting,value
C[C@@H]1CCC[C@H](C)N1C(=O)Nc1nccnc1C(=O)NC1Cc2ccccc2C1 [compound 19],"dose-response signal (normalized), SI Fig 8",PfcProRS; Log[inhibitor] (M) -5.000,3.96E-01 and 1.71E-01 and 2.62E-01
same,"dose-response signal (normalized), SI Fig 8",PfcProRS; Log[inhibitor] (M) -5.301,5.52E-01 and 5.02E-01 and 5.09E-01
same,"dose-response signal (normalized), SI Fig 8",PfcProRS; Log[inhibitor] (M) -5.601,8.00E-01 and 7.91E-01 and 8.42E-01
same,"dose-response signal (normalized), SI Fig 8",PfcProRS; Log[inhibitor] (M) -5.904,7.54E-01 and 9.47E-01 and 8.47E-01
same,"dose-response signal (normalized), SI Fig 8",PfcProRS; Log[inhibitor] (M) -6.208,1.02E+00 and 9.13E-01 and 1.08E+00
same,"dose-response signal (normalized), SI Fig 8",PfcProRS; Log[inhibitor] (M) -6.509,9.59E-01 and 1.03E+00 and 9.76E-01
same,"dose-response signal (normalized), SI Fig 8",PfcProRS; Log[inhibitor] (M) -6.796,1.09E+00 and 1.00E+00 and 1.08E+00
same,"dose-response signal (normalized), SI Fig 8",PfcProRS; Log[inhibitor] (M) -7.108,9.66E-01 and 9.00E-01 and 9.04E-01
same,"dose-response signal (normalized), SI Fig 8",PfcProRS; Log[inhibitor] (M) -7.409,9.53E-01 and 1.01E+00 and 9.35E-01
same,"dose-response signal (normalized), SI Fig 8",PfcProRS; Log[inhibitor] (M) -7.710,1.09E+00 and 9.53E-01 and 1.01E+00
same,"dose-response signal (normalized), SI Fig 8",PfcProRS; Log[inhibitor] (M) -8.000,1.12E+00 and 1.07E+00 and 9.69E-01
same,"dose-response signal (normalized), SI Fig 8",PfcProRS; Log[inhibitor] (M) -8.301,1.02E+00 (2×) and 1.14E+00
same,"dose-response signal (normalized), SI Fig 8",PfcProRS; Log[inhibitor] (M) -8.602,1.07E+00 and 8.94E-01 and 1.04E+00
same,"dose-response signal (normalized), SI Fig 8",PfcProRS; Log[inhibitor] (M) -9.000,1.15E+00 and 8.96E-01 and 9.87E-01
same,"dose-response signal (normalized), SI Fig 8",PfcProRS; Log[inhibitor] (M) -9.301,8.48E-01 and 9.64E-01 and 1.02E+00
same,PfcProRS -- best Kd,"PfcProRS; SI Fig 16a, values on -log scale",5.928
same,IC50,HsProRS,> 10000 nM
same,Kd,"HsProRS; HsProRS (KD [nM]) + 100 μM proline mean, + 100 μM proline",1320 nM
same,"normalized TR-FRET ligand displacement signal, dose-response replicates (SI Fig 6)",HsProRS; Log[inhibitor] (M) -5.000,6.53E-01 and 6.39E-01 and 5.91E-01
same,"TR-FRET dose-response, normalized signal (SI Fig 11)",HsProRS; Log[inhibitor] (M) -5.000,8.15E-01 and 7.82E-01 and 8.24E-01
same,"normalized TR-FRET ligand displacement signal, dose-response replicates (SI Fig 6)",HsProRS; Log[inhibitor] (M) -5.301,8.82E-01 and 7.60E-01 and 7.73E-01
same,"TR-FRET dose-response, normalized signal (SI Fig 11)",HsProRS; Log[inhibitor] (M) -5.301,9.03E-01 and 8.79E-01 and 9.19E-01
same,"normalized TR-FRET ligand displacement signal, dose-response replicates (SI Fig 6)",HsProRS; Log[inhibitor] (M) -5.601,8.80E-01 (2×) and 8.74E-01
same,"TR-FRET dose-response, normalized signal (SI Fig 11)",HsProRS; Log[inhibitor] (M) -5.602,9.30E-01 and 1.01E+00 and 9.11E-01
same,"normalized TR-FRET ligand displacement signal, dose-response replicates (SI Fig 6)",HsProRS; Log[inhibitor] (M) -5.904,9.78E-01 and 8.58E-01 and 8.56E-01
same,"TR-FRET dose-response, normalized signal (SI Fig 11)",HsProRS; Log[inhibitor] (M) -5.904,9.97E-01 and 1.07E+00 and 9.73E-01
same,"TR-FRET dose-response, normalized signal (SI Fig 11)",HsProRS; Log[inhibitor] (M) -6.205,1.07E+00 and 9.89E-01 and 1.03E+00
same,"normalized TR-FRET ligand displacement signal, dose-response replicates (SI Fig 6)",HsProRS; Log[inhibitor] (M) -6.208,1.01E+00 and 9.70E-01 and 9.45E-01
same,"TR-FRET dose-response, normalized signal (SI Fig 11)",HsProRS; Log[inhibitor] (M) -6.506,1.02E+00 and 1.05E+00 and 9.88E-01
same,"normalized TR-FRET ligand displacement signal, dose-response replicates (SI Fig 6)",HsProRS; Log[inhibitor] (M) -6.509,9.25E-01 and 1.05E+00 and 8.66E-01
same,"normalized TR-FRET ligand displacement signal, dose-response replicates (SI Fig 6)",HsProRS; Log[inhibitor] (M) -6.796,1.10E+00 and 9.97E-01 and 1.01E+00
same,"TR-FRET dose-response, normalized signal (SI Fig 11)",HsProRS; Log[inhibitor] (M) -6.796,9.68E-01 and 1.04E+00 and 9.56E-01
same,"TR-FRET dose-response, normalized signal (SI Fig 11)",HsProRS; Log[inhibitor] (M) -7.097,1.08E+00 (2×) and 9.97E-01
same,"normalized TR-FRET ligand displacement signal, dose-response replicates (SI Fig 6)",HsProRS; Log[inhibitor] (M) -7.108,1.04E+00 (2×) and 1.01E+00
same,"TR-FRET dose-response, normalized signal (SI Fig 11)",HsProRS; Log[inhibitor] (M) -7.407,1.09E+00 and 9.94E-01 and 1.12E+00
same,"normalized TR-FRET ligand displacement signal, dose-response replicates (SI Fig 6)",HsProRS; Log[inhibitor] (M) -7.409,9.88E-01 and 9.12E-01 and 1.00E+00
same,"TR-FRET dose-response, normalized signal (SI Fig 11)",HsProRS; Log[inhibitor] (M) -7.708,1.07E+00 and 1.00E+00 and 1.08E+00
same,"normalized TR-FRET ligand displacement signal, dose-response replicates (SI Fig 6)",HsProRS; Log[inhibitor] (M) -7.710,9.99E-01 and 1.02E+00 and 9.53E-01
same,"normalized TR-FRET ligand displacement signal, dose-response replicates (SI Fig 6)",HsProRS; Log[inhibitor] (M) -8.000,9.74E-01 and 8.92E-01 and 8.64E-01
same,"TR-FRET dose-response, normalized signal (SI Fig 11)",HsProRS; Log[inhibitor] (M) -8.018,1.06E+00 and 1.03E+00 and 1.01E+00
same,"normalized TR-FRET ligand displacement signal, dose-response replicates (SI Fig 6)",HsProRS; Log[inhibitor] (M) -8.301,9.68E-01 and 9.13E-01 and 9.38E-01
same,"TR-FRET dose-response, normalized signal (SI Fig 11)",HsProRS; Log[inhibitor] (M) -8.319,9.44E-01 and 9.92E-01 and 9.43E-01
same,"normalized TR-FRET ligand displacement signal, dose-response replicates (SI Fig 6)",HsProRS; Log[inhibitor] (M) -8.602,9.46E-01 and 9.29E-01 and 1.00E+00
same,"TR-FRET dose-response, normalized signal (SI Fig 11)",HsProRS; Log[inhibitor] (M) -8.620,1.03E+00 and 1.01E+00 and 7.25E-01
same,"TR-FRET dose-response, normalized signal (SI Fig 11)",HsProRS; Log[inhibitor] (M) -8.921,1.02E+00 and 9.26E-01 and 9.67E-01
same,"normalized TR-FRET ligand displacement signal, dose-response replicates (SI Fig 6)",HsProRS; Log[inhibitor] (M) -9.000,9.21E-01 and 9.72E-01 and 9.38E-01
same,"TR-FRET dose-response, normalized signal (SI Fig 11)",HsProRS; Log[inhibitor] (M) -9.097,9.79E-01 and 1.10E+00 and 1.04E+00
same,"normalized TR-FRET ligand displacement signal, dose-response replicates (SI Fig 6)",HsProRS; Log[inhibitor] (M) -9.301,8.73E-01 and 8.54E-01 and 9.42E-01
same,HsProRS % signal at 10 μM,"HsProRS; no added proline/ATP (-), 10 μM",80.7%
same,"% signal at 10 μM, wildtype (Dd2-2D4)",P. falciparum Dd2-2D4,67.3%
